Values quoted from earlier work in patent publication US11499155B2, “Dynamin 2 inhibitor for the treatment of centronuclear myopathies” (UNIVERSITE DE STRASBOURG, priority 2013, dated 2022).

How the values were obtained:
[1] = system: Dynamin
[2] = system: mitochondrial division; conditions: read-out: IC50 (mitochondrial division inhibitor)
[3] = target: receptor-mediated and synaptic vesicle endocytosis; conditions: read-out: IC50 for inhibition of receptor-mediated and synaptic vesicle endocytosis

SMILES | IC50 [1] [µM] | also measured
O=C(NN=Cc1cc(O)c(O)cc1O)c1cc2ccccc2cc1O [Hydroxy-Dynasore, 3-Hydroxy-N′-[(2,4,5-trihydroxyphenyl)methylidene]naphthalene-2-carbohydrazide] | 2.5 | 
COc1cc(-n2c(S)nc3ccccc3c2=O)c(Cl)cc1Cl [M-divi 1, 3-(2,4-Dichloro-5-methoxyphenyl)-2-sulfanylquinazolin-4(3H)-one] |  | IC50 [2]: 10 µM
CCCCCCCCCCCCCC[N+](C)(C)C [MiTMAB, Tetradecyltrimethylammonium bromide] |  | IC50 [3]: 2.2 µM
CCCCCCCCCCCCCCCCCC[N+](C)(C)CCN1C(=O)C2C3CCC(O3)C2C1=O (stereo not shown) [RTIL-13, 4-(N,N-Dimethyl-N-octadecyl-N-ethyl)-4-aza-10-oxatricyclo-[5.2.1]decane-3,5-dione bromide] | 2.3 | 
